Results as given in patent US20160213742A1, “COMPOSITIONS AND METHODS FOR THE TREATMENT OF FUNGAL INFECTIONS” (priority 2013, published 2016).
Values after ≈ are worked out from the molar mass of the structure shown.

How the values were obtained:
Type in all cases: cell-based
C. albicans ATCC 90028 = assay: microbe, parasite or virus in culture; settings: ATCC 90028, pH 7
Description: (§1) The test organisms consisted of strains from the Micromyx collection. Reference isolates were originally received from the American Type Culture Collection (ATCC; Manassas, Va.). Organisms received at Micromyx were initially streaked for isolation on Sabouraud dextrose or potato dextrose agar. Colonies were picked by swab from the medium and resuspended in the appropriate broth containing cryoprotectant. The suspensions were aliquoted into cryogenic vials and maintained at −80° C. Prior to testing, Candida isolates were streaked from the frozen vials on Sabouraud dextrose agar. The yeast isolates were incubated at overnight at 35° C. before use. The fungal isolates were incubated at least 7 days on Sabouraud dextrose agar slants at 35° C. before harvesting.
(§2) Isolates were tested in RPMI medium (Catalog No. SH30011.04; Lot No. AWA92121B; HyClone Labs, Logan, Utah) which was prepared according to CLSI guidelines. The pH of the medium was adjusted to 7.0 with 1 N NaOH. The medium was sterile filtered using a 0.2 μm PES filter and stored at 4° C. until used.
(§3) The MIC assay method employed automated liquid handlers to conduct serial dilutions and liquid transfers. Automated liquid handlers included the Multidrop 384 (Labsystems, Helsinki, Finland), Biomek 2000 and Biomek FX (Beckman Coulter, Fullerton Calif.). The wells in columns 2-12 in standard 96-well microdilution plates (Costar 3795) were filled with 150 μl of the correct diluent (50% DMSO for investigational compounds, 100% DMSO for comparator compounds). These would become the mother plates' from which ‘daughter’ or test plates would be prepared. Stocks were diluted to 40× the desired top concentration in the test plates in the indicated solvent, and 300 μL of the 40× stock was dispensed into the appropriate well in Column 1 of the mother plates. The Biomek 2000 was used to make serial serial 2-fold dilutions through Column 11 in the “mother plate”. The wells of Column 12 contained no drug and served as the organism growth control wells.
(§4) The daughter plates were loaded with 185 μL per well of RPMI described above using the Multidrop 384. The daughter plates were prepared using the Biomek FX which transferred 5 μL of drug solution from each well of a mother plate to the corresponding well of the daughter plate in a single step.
(§5) A standardized inoculum of each organism was prepared. For Candida, colonies were picked from the streak plate and a suspension was prepared in RPMI medium equal to a 0.5 McFarland standard, then diluted 1:100 in RPMI and transferred to compartments of sterile reservoirs divided by length (Beckman Coulter). For the Aspergillus isolates, previously prepared and quantitated suspensions were used to make dilutions in RPMI to reach 20× the final concentration. These dilutions were also transferred to compartments of sterile reservoirs divided by length (Beckman Coulter). The final concentration of the Aspergillus isolates was approximately 0.2-2.5×10^4 CFU/mL.
(§6) The Biomek 2000 was used to inoculate the plates. Daughter plates were placed on the Biomek 2000 work surface reversed so that inoculation took place from low to high drug concentration. The Biomek 2000 delivered 10 μL of standardized inoculum into each well. Thus, the wells of the daughter plates ultimately contained 185 μL of RPMI, 5 μL of drug solution, and 10 μL of inoculum. The final concentration of DMSO in the test well was 2.5% for the evaluated comparators and 1.25% for the investigational agents.
(§7) Plates were stacked 3 high, covered with a lid on the top plate, placed into plastic bags, and incubated at 35° C. for approximately 24-48 hr prior to reading. Plates were read when inoculum was confluent in growth wells. Plates were viewed from the bottom using a plate viewer. […] MICs were read where visible growth of the organism was inhibited. MECs were read where the growth shifted to a small, rounded, compact hyphal form as compared to the hyphal growth seen in the growth control well.

C. glabrata ATCC 90030 = assay: microbe, parasite or virus in culture; settings: ATCC 90030, pH 7
Description: as §1, §2, §3, §4, §5, §6, §7

C. krusei ATCC 14243 = assay: microbe, parasite or virus in culture; settings: ATCC 14243, pH 7
Description: as §1, §2, §3, §4, §5, §6, §7

[1] = tested on: C. parapsilosis ATCC 22019; assay: microbe, parasite or virus in culture; settings: ATCC 22019, pH 7
Description: as §1, §2, §3, §4, §5, §6, §7

A. flavus MX 5948 = assay: MEC assay (Example 31); settings: RPMI pH 7.0, 35° C., 24-48 hr
Description: as §1, §2, §3, §4, §5, §6, §7

A. fumigatus ATCC 13073 = assay: MEC assay (Example 31); settings: RPMI pH 7.0, 35° C., 24-48 hr
Description: as §1, §2, §3, §4, §5, §6, §7

A. fumigatus MX 5944 = assay: MEC assay (Example 31); settings: RPMI pH 7.0, 35° C., 24-48 hr
Description: as §1, §2, §3, §4, §5, §6, §7

A. fumigatus MYA-3626 = assay: MEC assay (Example 31); settings: RPMI pH 7.0, 35° C., 24-48 hr
Description: as §1, §2, §3, §4, §5, §6, §7

A. fumigatus MYA-4609 = assay: MEC assay (Example 31); settings: RPMI pH 7.0, 35° C., 24-48 hr
Description: as §1, §2, §3, §4, §5, §6, §7

[2] = tested on: Neutrophils purified from human peripheral blood; assay: Human Neutrophil Transwell Migration Assay; settings: 37° C., 45 minutes, % of the maximum migration possible
Source text: Neutrophils were purified from human peripheral blood utilizing PolymorphPrep. Red blood cells were lysed with a lysis buffer and the cells were washed, counted and resuspended in assay buffer. Neutrophils (approximately 50,000 to 100,000 in number) were placed over 5-micon pore sized transwell plates in 24-well format with test compounds in the bottom chamber of each well. A negative control of media alone in the bottom chamber was set up in triplicate. A positive control where the neutrophils were added directly to the bottom well was set up in triplicate.
The plates were incubated at 37° C. for 45 minutes to allow for migration. After this time, migration was confirmed visually and then an aliquot (⅙^th of total cells) from each well was taken for ATP detection via luminescence with ATPlite (PerkinElmer) to quantify the number of migrated cells. The averaged reading for random migration detected in the negative control was subtracted from all readings to obtain the corrected migration number. These numbers were then divided by the averaged reading from the positive control to get the % Neutrophil Migration of the maximum migration possible.

SMILES	MIC (C. albicans ATCC 90028)	MIC (C. glabrata ATCC 90030)	MIC (C. krusei ATCC 14243)	MIC [1]	MEC (A. flavus MX 5948)	MEC (A. fumigatus ATCC 13073)	MEC (A. fumigatus MX 5944)	MEC (A. fumigatus MYA-3626)	MEC (A. fumigatus MYA-4609)	% Neutrophil Migration ([2]; conc 0.001 μg/mL)	% Neutrophil Migration ([2]; conc 0.01 μg/mL)	% Neutrophil Migration ([2]; conc 0.1 μg/mL)	% Neutrophil Migration ([2]; conc 1 μg/mL)	% Neutrophil Migration ([2]; conc 10 μg/mL)
CC[C@H](C)C[C@H](C)CCCCCCCCC(=O)N[C@H]1C[C@@H](O)[C@@H](NCCN)NC(=O)[C@@H]2[C@@H](O)CCN2C(=O)[C@H]([C@H](O)CCNC(=O)[C@@H](N)CCCCNC(=O)[C@H](Cc2ccccc2)NC(=O)[C@H](CC(C)C)NC(=O)[C@H](CCSC)NC=O)NC(=O)[C@H]([C@H](O)[C@@H](O)c2ccc(O)cc2)NC(=O)[C@@H]2C[C@@H](O)CN2C(=O)[C@H]([C@@H](C)O)NC1=O [Compound 15]	1 µg/mL (≈ 0.609 µM)	2 µg/mL (≈ 1.22 µM)	8 µg/mL (≈ 4.87 µM)	16 µg/mL (≈ 9.75 µM)	0.12 µg/mL	0.12 µg/mL	0.12 µg/mL	0.12 µg/mL	0.12 µg/mL	9.6%	47.3%	13.0%	−6.3%	−7.0%
CC[C@H](C)C[C@H](C)CCCCCCCCC(=O)N[C@H]1C[C@@H](O)[C@@H](NCCN)NC(=O)[C@@H]2[C@@H](O)CCN2C(=O)[C@H]([C@H](O)CCNC(=O)[C@H](CCSC)NC=O)NC(=O)[C@H]([C@H](O)[C@@H](O)c2ccc(O)cc2)NC(=O)[C@@H]2C[C@@H](O)CN2C(=O)[C@H]([C@@H](C)O)NC1=O [Compound 26]	0.25 µg/mL (≈ 0.2 µM)	1 µg/mL (≈ 0.798 µM)	4 µg/mL (≈ 3.19 µM)	4 µg/mL (≈ 3.19 µM)	≦0.03 μg/mL	≦0.03 μg/mL	≦0.03 μg/mL	≦0.03 μg/mL	≦0.03 μg/mL	−3.4%	−3.4%	−5.1%	−4.1%	15.7%
CC[C@H](C)C[C@H](C)CCCCCCCCC(=O)N[C@H]1C[C@@H](O)[C@@H](NCCN)NC(=O)[C@@H]2[C@@H](O)CCN2C(=O)[C@H]([C@H](O)CCNC(=O)[C@H](CC(C)C)NC(=O)[C@H](CCSC)NC=O)NC(=O)[C@H]([C@H](O)[C@@H](O)c2ccc(O)cc2)NC(=O)[C@@H]2C[C@@H](O)CN2C(=O)[C@H]([C@@H](C)O)NC1=O [Compound 27]	2 µg/mL (≈ 1.46 µM)	2 µg/mL (≈ 1.46 µM)	8 µg/mL (≈ 5.86 µM)	16 µg/mL (≈ 11.7 µM)	0.06 µg/mL	8 µg/mL	0.12 µg/mL	0.25 µg/mL	0.12 µg/mL	−1.6%	3.4%	−4.2%	−1.6%	37.0%

More lines, main results first:

MIC (C. albicans ATCC 90028)	MIC (C. glabrata ATCC 90030)	MIC (C. krusei ATCC 14243)	MIC [1]	SMILES	MEC (A. flavus MX 5948)	MEC (A. fumigatus ATCC 13073)	MEC (A. fumigatus MX 5944)	MEC (A. fumigatus MYA-3626)	MEC (A. fumigatus MYA-4609)	% Neutrophil Migration ([2]; conc 0.001 μg/mL)	% Neutrophil Migration ([2]; conc 0.01 μg/mL)	% Neutrophil Migration ([2]; conc 0.1 μg/mL)	% Neutrophil Migration ([2]; conc 1 μg/mL)	% Neutrophil Migration ([2]; conc 10 μg/mL)
1 µg/mL (≈ 0.668 µM)	2 µg/mL (≈ 1.34 µM)	8 µg/mL (≈ 5.34 µM)	8 µg/mL (≈ 5.34 µM)	CC[C@H](C)C[C@H](C)CCCCCCCCC(=O)N[C@H]1C[C@@H](O)[C@@H](NCCN)NC(=O)[C@@H]2[C@@H](O)CCN2C(=O)[C@H]([C@H](O)CCNC(=O)[C@H](CCSC)NC(=O)[C@H](CC(C)C)NC(=O)[C@H](CCSC)NC=O)NC(=O)[C@H]([C@H](O)[C@@H](O)c2ccc(O)cc2)NC(=O)[C@@H]2C[C@@H](O)CN2C(=O)[C@H]([C@@H](C)O)NC1=O [Compound 28]	0.12 µg/mL	0.25 µg/mL	0.25 µg/mL	0.25 µg/mL	0.25 µg/mL	−0.4%	2.2%	43.4%	−0.2%	−7.4%
2 µg/mL (≈ 1.38 µM)	8 µg/mL (≈ 5.51 µM)	32 µg/mL (≈ 22 µM)	>32 µg/mL	CC[C@H](C)C[C@H](C)CCCCCCCCC(=O)N[C@H]1C[C@@H](O)[C@@H](NCCN)NC(=O)[C@@H]2[C@@H](O)CCN2C(=O)[C@H]([C@H](O)CCNC(=O)[C@H](CO)NC(=O)[C@H](CC(C)C)NC(=O)[C@H](CCSC)NC=O)NC(=O)[C@H]([C@H](O)[C@@H](O)c2ccc(O)cc2)NC(=O)[C@@H]2C[C@@H](O)CN2C(=O)[C@H]([C@@H](C)O)NC1=O [Compound 29]	0.25 µg/mL	0.5 µg/mL	0.25 µg/mL	0.25 µg/mL	0.25 µg/mL	1.4%	0.1%	2.2%	11.0%	8.4%
